{"source": "PubChem BioAssay (NCI)", "assay_in_all_cases": "inhibition of tumour cell growth, NCI panel, 48 h", "key": {"RXF 393 renal": {"tested_on": "RXF 393 renal"}, "SF-295 CNS": {"tested_on": "SF-295 CNS"}, "SK-MEL-28 melanoma": {"tested_on": "SK-MEL-28 melanoma"}, "K-562 leukemia": {"tested_on": "K-562 leukemia"}, "OVCAR-5 ovarian": {"tested_on": "OVCAR-5 ovarian"}, "MOLT-4 leukemia": {"tested_on": "MOLT-4 leukemia"}, "IGROV1 ovarian": {"tested_on": "IGROV1 ovarian"}, "KM12 colon": {"tested_on": "KM12 colon"}, "A549 NSCLC": {"tested_on": "A549 NSCLC"}, "CAKI-1 renal": {"tested_on": "CAKI-1 renal"}, "NCI/ADR-RES ovarian": {"tested_on": "NCI/ADR-RES ovarian"}, "SF-268 CNS": {"tested_on": "SF-268 CNS"}, "SF-539 CNS": {"tested_on": "SF-539 CNS"}, "UACC-62 melanoma": {"tested_on": "UACC-62 melanoma"}, "NCI-H23 lung": {"tested_on": "NCI-H23 lung"}, "NCI-H460 lung": {"tested_on": "NCI-H460 lung"}, "OVCAR-8 ovarian": {"tested_on": "OVCAR-8 ovarian"}, "TK-10 renal": {"tested_on": "TK-10 renal"}, "HS 578T breast": {"tested_on": "HS 578T breast"}, "786-0 renal": {"tested_on": "786-0 renal"}, "MDA-MB-435": {"tested_on": "MDA-MB-435"}, "BT-549 breast": {"tested_on": "BT-549 breast"}, "HOP-62 NSCLC": {"tested_on": "HOP-62 NSCLC"}, "MDA-MB-231 breast": {"tested_on": "MDA-MB-231 breast"}, "SW-620 colon": {"tested_on": "SW-620 colon"}, "MALME-3M melanoma": {"tested_on": "MALME-3M melanoma"}, "SK-OV-3 ovarian": {"tested_on": "SK-OV-3 ovarian"}, "CCRF-CEM leukemia": {"tested_on": "CCRF-CEM leukemia"}, "SNB-19 CNS": {"tested_on": "SNB-19 CNS"}, "T-47D breast": {"tested_on": "T-47D breast"}, "HL-60(TB) leukemia": {"tested_on": "HL-60(TB) leukemia"}, "RPMI-8226 leukemia": {"tested_on": "RPMI-8226 leukemia"}, "HCT-15 colon": {"tested_on": "HCT-15 colon"}, "NCI-H522 lung": {"tested_on": "NCI-H522 lung"}, "MDA-N": {"tested_on": "MDA-N"}, "HCT-116 colon": {"tested_on": "HCT-116 colon"}, "SK-MEL-2 melanoma": {"tested_on": "SK-MEL-2 melanoma"}, "U251 CNS": {"tested_on": "U251 CNS"}, "UO-31 renal": {"tested_on": "UO-31 renal"}, "EKVX NSCLC": {"tested_on": "EKVX NSCLC"}, "OVCAR-4 ovarian": {"tested_on": "OVCAR-4 ovarian"}, "M14 melanoma": {"tested_on": "M14 melanoma"}, "HT29 colon": {"tested_on": "HT29 colon"}, "LOX IMVI melanoma": {"tested_on": "LOX IMVI melanoma"}, "SR leukemia": {"tested_on": "SR leukemia"}, "UACC-257 melanoma": {"tested_on": "UACC-257 melanoma"}, "SK-MEL-5 melanoma": {"tested_on": "SK-MEL-5 melanoma"}, "ACHN renal": {"tested_on": "ACHN renal"}, "COLO 205 colon": {"tested_on": "COLO 205 colon"}, "PC-3 prostate": {"tested_on": "PC-3 prostate"}, "DU-145 prostate": {"tested_on": "DU-145 prostate"}, "A498 renal": {"tested_on": "A498 renal"}, "SN12C renal": {"tested_on": "SN12C renal"}, "MCF7 breast": {"tested_on": "MCF7 breast"}, "NCI-H226 lung": {"tested_on": "NCI-H226 lung"}, "OVCAR-3 ovarian": {"tested_on": "OVCAR-3 ovarian"}, "SNB-75 CNS": {"tested_on": "SNB-75 CNS"}, "HOP-92 NSCLC": {"tested_on": "HOP-92 NSCLC"}}, "note": "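Growth conditions: 96-well plates. Treatment: test compound, 48 hours, 5 concentrations. Analysis: linear interpolation between bracketing concentrations; unreached endpoints set to highest concentration. TGI is the concentration that stops growth completely.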", "data": [{"compound": "Cn1c(=O)c2c(ncn2CN2CCN(Cn3cnc4c3c(=O)n(C)c(=O)n4C)CC2)n(C)c1=O", "values": [{"measurement": "TGI", "setting": "RXF 393 renal", "result": 44.1, "unit": "µM"}, {"measurement": "TGI", "setting": "SF-295 CNS", "result": "> 100", "unit": "µM"}, {"measurement": "TGI", "setting": "SK-MEL-28 melanoma", "result": "> 100", "unit": "µM"}, {"measurement": "TGI", "setting": "K-562 leukemia", "result": "> 100", "unit": "µM"}, {"measurement": "TGI", "setting": "OVCAR-5 ovarian", "result": "> 100", "unit": "µM"}, {"measurement": "TGI", "setting": "MOLT-4 leukemia", "result": 41.4, "unit": "µM"}, {"measurement": "TGI", "setting": "IGROV1 ovarian", "result": "> 100", "unit": "µM"}, {"measurement": "TGI", "setting": "KM12 colon", "result": "> 100", "unit": "µM"}, {"measurement": "TGI", "setting": "A549 NSCLC", "result": "> 100", "unit": "µM"}, {"measurement": "TGI", "setting": "CAKI-1 renal", "result": "> 100", "unit": "µM"}, {"measurement": "TGI", "setting": "NCI/ADR-RES ovarian", "result": "> 100", "unit": "µM"}, {"measurement": "TGI", "setting": "SF-268 CNS", "result": "> 100", "unit": "µM"}, {"measurement": "TGI", "setting": "SF-539 CNS", "result": "> 100", "unit": "µM"}, {"measurement": "TGI", "setting": "UACC-62 melanoma", "result": "> 100", "unit": "µM"}, {"measurement": "TGI", "setting": "NCI-H23 lung", "result": "> 100", "unit": "µM"}, {"measurement": "TGI", "setting": "NCI-H460 lung", "result": 57.8, "unit": "µM"}, {"measurement": "TGI", "setting": "OVCAR-8 ovarian", "result": "> 100", "unit": "µM"}, {"measurement": "TGI", "setting": "TK-10 renal", "result": "> 100", "unit": "µM"}, {"measurement": "TGI", "setting": "HS 578T breast", "result": "> 100", "unit": "µM"}, {"measurement": "TGI", "setting": "786-0 renal", "result": "> 100", "unit": "µM"}, {"measurement": "TGI", "setting": "MDA-MB-435", "result": "> 100", "unit": "µM"}, {"measurement": "TGI", "setting": "BT-549 breast", "result": "> 100", "unit": "µM"}, {"measurement": "TGI", "setting": "HOP-62 NSCLC", "result": "> 100", "unit": "µM"}, {"measurement": "TGI", "setting": "MDA-MB-231 breast", "result": "> 100", "unit": "µM"}, {"measurement": "TGI", "setting": "SW-620 colon", "result": "> 100", "unit": "µM"}, {"measurement": "TGI", "setting": "MALME-3M melanoma", "result": "> 100", "unit": "µM"}, {"measurement": "TGI", "setting": "SK-OV-3 ovarian", "result": "> 100", "unit": "µM"}, {"measurement": "TGI", "setting": "CCRF-CEM leukemia", "result": 39.5, "unit": "µM"}, {"measurement": "TGI", "setting": "SNB-19 CNS", "result": "> 100", "unit": "µM"}, {"measurement": "TGI", "setting": "T-47D breast", "result": 89.1, "unit": "µM"}, {"measurement": "TGI", "setting": "HL-60(TB) leukemia", "result": 54, "unit": "µM"}, {"measurement": "TGI", "setting": "RPMI-8226 leukemia", "result": 49.5, "unit": "µM"}, {"measurement": "TGI", "setting": "HCT-15 colon", "result": "> 100", "unit": "µM"}, {"measurement": "TGI", "setting": "NCI-H522 lung", "result": "> 100", "unit": "µM"}, {"measurement": "TGI", "setting": "MDA-N", "result": "> 100", "unit": "µM"}, {"measurement": "TGI", "setting": "HCT-116 colon", "result": 34.6, "unit": "µM"}, {"measurement": "TGI", "setting": "SK-MEL-2 melanoma", "result": "> 100", "unit": "µM"}, {"measurement": "TGI", "setting": "U251 CNS", "result": "> 100", "unit": "µM"}, {"measurement": "TGI", "setting": "UO-31 renal", "result": "> 100", "unit": "µM"}, {"measurement": "TGI", "setting": "EKVX NSCLC", "result": "> 100", "unit": "µM"}, {"measurement": "TGI", "setting": "OVCAR-4 ovarian", "result": "> 100", "unit": "µM"}, {"measurement": "TGI", "setting": "M14 melanoma", "result": "> 100", "unit": "µM"}, {"measurement": "TGI", "setting": "HT29 colon", "result": "> 100", "unit": "µM"}, {"measurement": "TGI", "setting": "LOX IMVI melanoma", "result": 62.4, "unit": "µM"}, {"measurement": "TGI", "setting": "SR leukemia", "result": "> 100", "unit": "µM"}, {"measurement": "TGI", "setting": "UACC-257 melanoma", "result": "> 100", "unit": "µM"}, {"measurement": "TGI", "setting": "SK-MEL-5 melanoma", "result": "> 100", "unit": "µM"}, {"measurement": "TGI", "setting": "ACHN renal", "result": "> 100", "unit": "µM"}, {"measurement": "TGI", "setting": "COLO 205 colon", "result": "> 100", "unit": "µM"}, {"measurement": "TGI", "setting": "PC-3 prostate", "result": "> 100", "unit": "µM"}, {"measurement": "TGI", "setting": "DU-145 prostate", "result": "> 100", "unit": "µM"}, {"measurement": "TGI", "setting": "A498 renal", "result": "> 100", "unit": "µM"}, {"measurement": "TGI", "setting": "SN12C renal", "result": "> 100", "unit": "µM"}, {"measurement": "TGI", "setting": "MCF7 breast", "result": 35.7, "unit": "µM"}, {"measurement": "TGI", "setting": "NCI-H226 lung", "result": "> 100", "unit": "µM"}, {"measurement": "TGI", "setting": "OVCAR-3 ovarian", "result": "> 100", "unit": "µM"}, {"measurement": "TGI", "setting": "SNB-75 CNS", "result": "> 100", "unit": "µM"}, {"measurement": "TGI", "setting": "HOP-92 NSCLC", "result": "> 100", "unit": "µM"}]}]}
